US20130244929A1 (priority 2010, published 2013)
Read-outs that look alike come from different tables or passages of the source.

Tests used:
SpsB = biological target: T1, SpsB (Staphylococcus aureus, UniProt P0A070); assay: Inhibition of SpsB enzyme activity (fluorescence-based assay, bacterial membrane fraction); format: biochemical
T1 construct: using a bacterial membrane fraction as a source of SpsB; from tissue
T1 sequence (P0A070 1-191): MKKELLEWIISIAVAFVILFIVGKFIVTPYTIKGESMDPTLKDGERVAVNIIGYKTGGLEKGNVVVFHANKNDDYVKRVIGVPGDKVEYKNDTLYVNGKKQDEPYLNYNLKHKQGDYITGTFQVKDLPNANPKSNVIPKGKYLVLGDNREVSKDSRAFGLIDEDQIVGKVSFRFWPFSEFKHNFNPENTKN
Outline: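 Membrane fraction from bacteria supplied SpsB (0.6 mg/mL final protein), added last to start reactions with 20 μM lipopeptide substrate decanoyl-K(DABCYL)-TPTAKA↓ASKKD-D(EDANS)-NH2 (Km≈5 μM). Cleavage was followed as rising fluorescence, excitation 340/emission 460 nm.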

[1] = test system: MB 5393 (COL), a methicillin-resistant S. aureus strain; assay: Determination of minimum and synergistic inhibitory concentration; format: cell-based; conditions: for SIC: presence of imipenem (4 μg/mL); for MIC: Staphylococcus aureus
Outline: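 Broth microdilution: two-fold compound dilutions (final 64 to 0.0313 μg/mL) tested with and without subinhibitory imipenem (4 μg/mL) against MRSA COL at ~5×10^5 CFU/mL, 37°C, 22-24 hr stationary. MIC is lowest concentration preventing visible growth without imipenem; SIC same with imipenem.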

[2] = MRSA COL, absence of imipenem, 22 hours, read-out: MIC

| SMILES | IC50 (SpsB) | SIC ([1]; MRSA COL, 22 hours) | MIC ([1]; MRSA, 22 h) | MIC [1, 2] |
| --- | --- | --- | --- | --- |
| CCCCCCCCCc1ccc(-c2nc(C(=O)NCCC(=O)N[C@@H](CCCCN)C(=O)N(C)[C@@H]3C(=O)N[C@@H](C)C(=O)N[C@H](C(=O)O)Cc4ccc(O)c(c4)-c4cc3ccc4O)cs2)cc1 [EXAMPLE 41] | < 10 nM | G (G: SIC <0.0625) | < 1 µg/mL |  |
| C[C@@H]1NC(=O)[C@@H](N(C)C(=O)[C@H](CCCCN)NC(=O)CCNC(=O)c2ccc(-c3ccc(C(C)(C)C)cc3)cc2)c2ccc(O)c(c2)-c2cc(ccc2O)C[C@@H](C(=O)O)NC1=O [EXAMPLE 42] | < 10 nM | H (H: SIC 0.062-1) | < 1 µg/mL |  |
| CCCCCCCCCc1ccc(-c2ccc(C(=O)NCCC(=O)N[C@@H](CCCCN)C(=O)N(C)[C@@H]3C(=O)N[C@@H](C)C(=O)N[C@H](C(=O)O)Cc4ccc(O)c(c4)-c4cc3ccc4O)c(C)c2)cc1 [EXAMPLE 43] | < 10 nM | G (G: SIC <0.0625) | < 1 µg/mL |  |
| CCCCCCCCCc1ccc(-c2ccc(C(=O)NCCC(=O)N3C[C@@H](N)C[C@H]3C(=O)N(C)[C@@H]3C(=O)N[C@@H](C)C(=O)N[C@H](C(=O)O)Cc4ccc(O)c(c4)-c4cc3ccc4O)cc2)cc1 [EXAMPLE 44] | < 10 nM | G (G: SIC <0.0625) | < 1 µg/mL |  |
| CCCCCCCCCc1ccc(-c2ccc3sc(C(=O)NCCC(=O)N[C@@H](CCCCN)C(=O)N(C)[C@@H]4C(=O)N[C@@H](C)C(=O)N[C@H](C(=O)O)Cc5ccc(O)c(c5)-c5cc4ccc5O)cc3c2)cc1 [EXAMPLE 45] | < 10 nM | G (G: SIC <0.0625) | 1 to 8 µg/mL |  |
| CCC[C@H]1CC[C@H](c2ccc(-c3ccc(C(=O)NCCC(=O)N[C@@H](CCCCN)C(=O)N(C)[C@@H]4C(=O)N[C@@H](C)C(=O)N[C@H](C(=O)O)Cc5ccc(O)c(c5)-c5cc4ccc5O)cc3)cc2)CC1 [EXAMPLE 46] | < 10 nM | G (G: SIC <0.0625) | < 1 µg/mL |  |
| CCCCCCCCCc1ccc(-c2ccc3cc(C(=O)NCCC(=O)N[C@@H](CCCCN)C(=O)N(C)[C@@H]4C(=O)N[C@@H](C)C(=O)N[C@H](C(=O)O)Cc5ccc(O)c(c5)-c5cc4ccc5O)sc3c2)cc1 [EXAMPLE 47] | < 10 nM | G (G: SIC <0.0625) | 1 to 8 µg/mL |  |
| CCCc1ccc(-c2ccc(C(=O)NCCC(=O)N[C@@H](CCCCNC=N)C(=O)N(C)[C@@H]3C(=O)N[C@@H](C)C(=O)N[C@H](C(=O)O)Cc4ccc(O)c(c4)-c4cc3ccc4O)cc2)cc1 [EXAMPLE 48] | < 10 nM | H (H: SIC 0.062-1) | 1 to 8 µg/mL |  |
| C[C@@H]1NC(=O)[C@@H](N(C)C(=O)[C@H](CCCCN)NC(=O)CCNC(=O)c2ccc(-c3ccc(C4CCCCC4)cc3)cc2)c2ccc(O)c(c2)-c2cc(ccc2O)C[C@@H](C(=O)O)NC1=O [EXAMPLE 49] | < 10 nM | G (G: SIC <0.0625) | < 1 µg/mL |  |
| CCCCCCCCCc1ccc(-c2ccc(C(=O)NCCC(=O)N[C@@H](CCCCO)C(=O)N(C)[C@@H]3C(=O)N[C@@H](C)C(=O)N[C@H](C(=O)O)Cc4ccc(O)c(c4)-c4cc3ccc4O)cc2)cc1 [EXAMPLE 50] | < 10 nM | H (H: SIC 0.062-1) |  | > 8 µg/mL |
| CCCCc1ccc(-c2ccc(C(=O)NCCC(=O)N[C@@H](CCCCN)C(=O)N(C)[C@@H]3C(=O)N[C@@H](C)C(=O)N[C@H](C(=O)O)Cc4ccc(O)c(c4)-c4cc3ccc4O)cc2)cc1 [EXAMPLE 51] | < 10 nM | G (G: SIC <0.0625) | < 1 µg/mL |  |
| CCCCCCCCCc1ccc(-c2ccc(C(=O)NCCC(=O)N[C@@H](CCCCN)C(=O)N(C)[C@@H]3C(=O)N[C@@H](C)C(=O)N[C@H](C(=O)O)Cc4ccc(O)c(c4)-c4cc3ccc4O)c3ccccc23)cc1 [EXAMPLE 52] | < 10 nM | G (G: SIC <0.0625) | 1 to 8 µg/mL |  |
| CCCc1ccc(-c2ccc(C(=O)NCCC(=O)N3CC(CCN)C[C@H]3C(=O)N(C)[C@@H]3C(=O)N[C@@H](C)C(=O)N[C@H](C(=O)O)Cc4ccc(O)c(c4)-c4cc3ccc4O)cc2)cc1 (stereo partly drawn) [EXAMPLE 53] | < 10 nM | G (G: SIC <0.0625) | < 1 µg/mL |  |
| CCCCCCCCCc1ccc(-c2ccc(C(=O)NCCC(=O)N[C@@H](CCCCN)C(=O)N(C)[C@@H]3C(=O)N[C@@H](C)C(=O)N[C@H](C(=O)O)Cc4ccc(O)c(c4)-c4cc3ccc4O)cn2)cc1 [EXAMPLE 54] | < 10 nM | G (G: SIC <0.0625) | < 1 µg/mL |  |
| CCCc1ccc(-c2ccc(C(=O)NCCC(=O)N[C@@H](CCCN)C(=O)N(C)[C@@H]3C(=O)N[C@@H](C)C(=O)N[C@H](C(=O)O)Cc4ccc(O)c(c4)-c4cc3ccc4O)cc2)cc1 [EXAMPLE 55] | < 10 nM | H (H: SIC 0.062-1) | < 1 µg/mL |  |
| COc1ccc2cc1-c1cc(ccc1OC)[C@H](N(C)C(=O)[C@H](CCCCN)NC(=O)CCNC(=O)c1ccc(-c3ccc(CCCCCCCCC(C)(C)O)cc3)cc1)C(=O)N[C@@H](C)C(=O)N[C@H](C(=O)O)C2 [EXAMPLE 56] | < 10 nM | H (H: SIC 0.062-1) | 1 to 8 µg/mL |  |
| CCCCCCCCCc1ccc(-c2ccc(C(=O)NCCC(=O)N[C@@H](CCCCN)C(=O)N(C)[C@@H]3C(=O)N[C@@H](C)C(=O)N[C@H](C(=O)O)Cc4ccc(O)c(c4)-c4cc3ccc4O)cc2C)cc1 [EXAMPLE 58] | < 10 nM | G (G: SIC <0.0625) | < 1 µg/mL |  |
| C[C@@H]1NC(=O)[C@@H](N(C)C(=O)[C@@H]2CCCN2C(=O)CCNC(=O)c2ccc(CCCCCCCCc3ccccc3)cc2)c2ccc(O)c(c2)-c2cc(ccc2O)C[C@@H](C(=O)O)NC1=O [EXAMPLE 59] | < 10 nM | H (H: SIC 0.062-1) | 1 to 8 µg/mL |  |
| CCCCCCCCCCc1ccc2cc(C(=O)NCCC(=O)N[C@@H](CCCC(=O)O)C(=O)N(C)[C@@H]3C(=O)N[C@@H](C)C(=O)N[C@H](C(=O)O)Cc4ccc(O)c(c4)-c4cc3ccc4O)ccc2c1 [EXAMPLE 60] | 10 to 50 nM | G (G: SIC <0.0625) |  | 1 to 8 µg/mL |
| CCCCCCCc1ccc2cc(C(=O)NCCC(=O)N[C@@H](CCCCN)C(=O)N(C)[C@@H]3C(=O)N[C@@H](C)C(=O)N[C@H](C(=O)O)Cc4ccc(O)c(c4)-c4cc3ccc4O)cnc2c1 [EXAMPLE 61] | 10 to 50 nM | H (H: SIC 0.062-1) | < 1 µg/mL |  |
| CCCCCCCCCCc1ccc2nc(C(=O)NCCC(=O)N[C@@H](CCCCN)C(=O)N(C)[C@@H]3C(=O)N[C@@H](C)C(=O)N[C@H](C(=O)O)Cc4ccc(O)c(c4)-c4cc3ccc4O)ccc2c1 [EXAMPLE 62] | 10 to 50 nM | G (G: SIC <0.0625) |  | < 1 µg/mL |
| CCCCCCCCCc1ccc(-c2cnc(C(=O)NCCC(=O)N[C@@H](CCCCN)C(=O)N(C)[C@@H]3C(=O)N[C@@H](C)C(=O)N[C@H](C(=O)O)Cc4ccc(O)c(c4)-c4cc3ccc4O)nc2)cc1 [EXAMPLE 63] | 10 to 50 nM | G (G: SIC <0.0625) | < 1 µg/mL |  |
| C[C@@H]1NC(=O)[C@@H](N(C)C(=O)[C@H](CCCCN)NC(=O)CCNC(=O)c2coc(CCCCCCCCc3ccccc3)n2)c2ccc(O)c(c2)-c2cc(ccc2O)C[C@@H](C(=O)O)NC1=O [EXAMPLE 64] | 10 to 50 nM | G (G: SIC <0.0625) | < 1 µg/mL |  |
| CCCCCCCCCc1ccc(-c2cccc3c(C(=O)NCCC(=O)N[C@@H](CCCCN)C(=O)N(C)[C@@H]4C(=O)N[C@@H](C)C(=O)N[C@H](C(=O)O)Cc5ccc(O)c(c5)-c5cc4ccc5O)cnn23)cc1 [EXAMPLE 65] | 10 to 50 nM | G (G: SIC <0.0625) | 1 to 8 µg/mL |  |
| CCCCCCCCCc1ccc(-c2ccc(C(=O)NCCC(=O)N[C@@H](CCCCN)C(=O)N(C)[C@@H]3C(=O)N[C@@H](C)C(=O)N[C@H](C(=O)O)Cc4ccc(O)c(c4)-c4cc3ccc4O)c(F)c2)cc1 [EXAMPLE 66] | 10 to 50 nM | G (G: SIC <0.0625) | < 1 µg/mL |  |
| CCCCCCCCCCc1ccc2ccc(C(=O)NCCC(=O)N3CCC[C@H]3C(=O)N(C)[C@@H]3C(=O)N[C@@H](C)C(=O)N[C@H](C(=O)O)Cc4cccc(c4)-c4cc3ccc4OC)cc2c1 [EXAMPLE 67] | 10 to 50 nM | I (I: SIC >1) |  | > 8 µg/mL |
